Legend:
human Factor XI mRNA [1] = assay: Dose-dependent inhibition in HepG2 cells, electroporation (Example 5); type: cell-based; details: approx. 16 h, relative to untreated control cells
Procedure: The gapmers were also transfected via electroporation and their dose dependent inhibition of human Factor XI mRNA was measured. Cells were plated at a density of 20,000 cells per well and transfected via electroporation with 625 nM, 1250 nM, 2500 nM, 5,000 nM, 10,000 nM, and 20,000 nM concentrations of antisense oligonucleotide, as specified in Table 12. After a treatment period of approximately 16 hours, RNA was isolated from the cells and human Factor XI mRNA levels were measured by quantitative real-time PCR. Human Factor XI primer probe set RTS 2966 was used to measure mRNA levels. Factor XI mRNA levels were adjusted according to total RNA content, as measured by RIBOGREEN®. Results are presented as percent inhibition of human Factor XI, relative to untreated control cells.

human Factor XI mRNA [2] = assay: Dose-dependent inhibition in HepB3 cells, lipofectin (Example 7); type: cell-based; details: approx. 16 h
Procedure: Cells were plated at a density of 4,000 cells per well and transfected using lipofectin reagent with 2.3 nM, 4.7 nM, 9.4 nM, 18.75 nM, 37.5 nM, and 75 nM concentrations of antisense oligonucleotide, as specified in Table 14. After a treatment period of approximately 16 hours, RNA was isolated from the cells and human Factor XI mRNA levels were measured by quantitative real-time PCR. Human Factor XI primer probe set RTS 2966 was used to measure mRNA levels. Factor XI mRNA levels were adjusted according to total RNA content, as measured by RIBOGREEN®. Results are presented as percent inhibition of Factor XI, relative to untreated control cells.

[3] = Tolerability in Sprague-Dawley rats: kidney function (Example 19); type: in vivo; details: Sprague Dawley rats; for urine protein/creatinine ratio, After: after 50 mg/kg s.c. twice per week for 6 weeks; for urine protein/creatinine ratio, Before: before antisense oligonucleotide treatment
Excerpt: Urine samples were taken before the start of treatment.

human Factor XI mRNA [4] = assay: Dose-dependent inhibition in HepG2 cells, lipofectin (Example 5); type: cell-based; details: 16 hours
Procedure: Cells were plated at a density of 10,000 cells per well and transfected using lipofectin reagent with 2.34 nM, 4.69 nM, 9.375 nM, 18.75 nM, 37.5 nM, and 75 nM concentrations of antisense oligonucleotide, as specified in Table 11. After a treatment period of approximately 16 hours, RNA was isolated from the cells and human Factor XI mRNA levels were measured by quantitative real-time PCR. Human Factor XI primer probe set RTS 2966 was used to measure mRNA levels. Factor XI mRNA levels were adjusted according to total RNA content, as measured by RIBOGREEN®. Results are presented as percent inhibition of human Factor XI, relative to untreated control cells.

human Factor XI mRNA [5] = assay: Antisense inhibition in HepG2 cells by microwalk gapmers, 75 nM, lipofectin (Example 3); type: cell-based; details: HepG2 cells, 75 nM
Summary of the method: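 HepG2 cells (10,000 per well) were transfected with 75 nM gapmer using lipofectin and treated for about 24 h. Factor XI mRNA was quantified by real-time PCR, normalized to RiboGreen total RNA and expressed as percent inhibition versus untreated controls.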

[6] = oligonucleotides targeted to nucleobases 1275 to 1318 of SEQ ID NO: 1

Substance	percent inhibition of human Factor XI mRNA (human Factor XI mRNA [1]; 625 nM)	percent inhibition of human Factor XI mRNA (human Factor XI mRNA [1]; 1250 nM)	percent inhibition of human Factor XI mRNA (human Factor XI mRNA [1]; 2500 nM)	percent inhibition of human Factor XI mRNA (human Factor XI mRNA [1]; 5000 nM)	percent inhibition of human Factor XI mRNA (human Factor XI mRNA [1]; 10000 nM)	percent inhibition of human Factor XI mRNA (human Factor XI mRNA [1]; 20000 nM)	percent inhibition of human Factor XI mRNA (human Factor XI mRNA [2]; 2.3 nM)	percent inhibition of human Factor XI mRNA (human Factor XI mRNA [2]; 4.7 nM)	percent inhibition of human Factor XI mRNA (human Factor XI mRNA [2]; 9.4 nM)	percent inhibition of human Factor XI mRNA (human Factor XI mRNA [2]; 18.75 nM)	percent inhibition of human Factor XI mRNA (human Factor XI mRNA [2]; 37.5 nM)	percent inhibition of human Factor XI mRNA (human Factor XI mRNA [2]; 75 nM)	urine protein/creatinine ratio, After [3]	urine protein/creatinine ratio, Before [3]	percent inhibition of human Factor XI mRNA, relative to untreated control cells (human Factor XI mRNA [4]; 2.34 nM)	percent inhibition of human Factor XI mRNA, relative to untreated control cells (human Factor XI mRNA [4]; 4.69 nM)	percent inhibition of human Factor XI mRNA, relative to untreated control cells (human Factor XI mRNA [4]; 9.375 nM)	percent inhibition of human Factor XI mRNA, relative to untreated control cells (human Factor XI mRNA [4]; 18.75 nM)	percent inhibition of human Factor XI mRNA, relative to untreated control cells (human Factor XI mRNA [4]; 37.5 nM)	percent inhibition of human Factor XI mRNA, relative to untreated control cells (human Factor XI mRNA [4]; 75 nM)	other results
416825 (antisense GCCCTTCATGTCTAGGTCCA; 5-10-5 gapmer, wing sugar chemistry not given here, further chemistry not given here) [compound 416825]	69%	84%	91%	94%	96%	97%	0%	15%	34%	36%	53%	59%	5.4	1.1	4%	22%	39%	57%	79%	89%	–
416838 (antisense GCAACCGGGATGATGAGTGC; 5-10-5 gapmer, wing sugar chemistry not given here, further chemistry not given here) [compound 416838]	66%	79%	87%	90%	93%	96%	23%	34%	43%	59%	71%	56%	3.7	1.2	21%	37%	50%	63%	74%	83%	% inhibition of human Factor XI mRNA levels (human Factor XI mRNA [5]; oligonucleotides targeted to nucleobases 1018 to 1042 of SEQ ID NO: 1): 94%
416850 (antisense TGCACAGTTTCTGGCAGGCC; 5-10-5 gapmer, wing sugar chemistry not given here, further chemistry not given here) [compound 416850]	69%	80%	87%	90%	93%	96%	22%	32%	43%	56%	75%	60%	4.0	1.0	24%	31%	49%	55%	70%	77%	% inhibition of human Factor XI mRNA levels (human Factor XI mRNA [5]; [6]): 93%
416858 (antisense ACGGCATTGGTGCACAGTTT; 5-10-5 gapmer, wing sugar chemistry not given here, further chemistry not given here) [compound 416858]	65%	77%	87%	89%	93%	93%	17%	34%	43%	57%	74%	62%	4.4	0.9	11%	35%	46%	61%	75%	77%	% inhibition of human Factor XI mRNA levels (human Factor XI mRNA [5]; [6]): 93%
416864 (antisense GGCAGCGGACGGCATTGGTG; 5-10-5 gapmer, wing sugar chemistry not given here, further chemistry not given here) [compound 416864]	45%	74%	84%	87%	92%	94%	24%	37%	42%	66%	76%	63%	4.0	1.2	13%	34%	42%	65%	68%	80%	% inhibition of human Factor XI mRNA levels (human Factor XI mRNA [5]; [6]): 93%
416925 (antisense GGTGCACAGTTTCTGGCAGG; 3-14-3 chimeric gapmer, wing sugar chemistry not given here, further chemistry not given here) [compound 416925]	64%	80%	88%	91%	95%	96%	26%	33%	45%	59%	72%	60%	4.3	1.0	24%	34%	45%	56%	67%	72%	% inhibition of human Factor XI mRNA levels (human Factor XI mRNA [5]; [6]): 98%
